One may read the IC50 as the concentration needed to halve the response being measured.

For the assay, the target named is T1, human S1P1 receptors (Homo sapiens, UniProt P21453).
T1 construct: host or cells: HEK293
T1 sequence (P21453 whole entry): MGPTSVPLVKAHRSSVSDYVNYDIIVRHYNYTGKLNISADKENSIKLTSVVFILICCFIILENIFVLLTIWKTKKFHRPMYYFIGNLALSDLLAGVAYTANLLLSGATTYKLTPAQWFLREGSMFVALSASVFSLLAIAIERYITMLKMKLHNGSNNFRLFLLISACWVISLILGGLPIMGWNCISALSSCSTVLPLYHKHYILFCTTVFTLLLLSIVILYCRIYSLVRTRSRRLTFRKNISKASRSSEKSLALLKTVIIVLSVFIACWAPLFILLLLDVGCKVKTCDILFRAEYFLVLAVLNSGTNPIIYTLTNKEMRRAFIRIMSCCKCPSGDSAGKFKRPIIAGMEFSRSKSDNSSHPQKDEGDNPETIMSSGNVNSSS
Description: S1P1R antagonist assay (fluorescent membrane potential dye, cAMP readout). Type of assay: cell-based. The conditions noted are these: HEK293 cells expressing human S1P1 receptors and CNG channel; 500 nM NECA; S1P1R agonist 10 nM; 90 minutes; read-out: EC50 or IC50 value.
For the molecule `O=C(CCC(=O)N1C[C@H](Cc2ccccc2)C[C@H]1C(=O)Nc1ccc(Oc2ccc(F)cc2)cc1)c1cccs1` [Compound 91, (2S,4R)-4-benzyl-N-(4-(4-fluorophenoxy)phenyl)-1-(4-oxo-4-(thien-2-yl)butanoyl)pyrrolidine-2-carboxamide], the IC50 was not above 300 nM.

As to `CSCCC(=O)N1C[C@H](Cc2ccccc2)C[C@H]1C(=O)Nc1ccc(Oc2ccc(F)cc2)cc1` [Compound 85, (2S,4R)-4-benzyl-N-(4-(4-fluorophenoxy)phenyl)-1-(3-(methylthio)propanoyl)pyrrolidine-2-carboxamide], the concentration for half-maximal inhibition (IC50) is not above 300 nM.

For the molecule `O=C(NC(COCc1ccccc1)C(=O)Nc1ccc(Oc2ccccc2)cc1)c1cccs1` (stereo not drawn) [Compound 292, N-(2-oxo-1-{[(phenylmethyl)oxy]methyl}-2-{[4-(phenyloxy)phenyl]amino}ethyl)thiophene-2-carboxamide], the half-maximal inhibitory concentration (IC50) was more than 1000 nM.

On to `O=C(Cn1ccnc1)N[C@@H](COCc1ccccc1)C(=O)Nc1ccc(Oc2ccc(F)cc2)cc1` [Compound 134, (S)-2-(2-(1H-imidazol-1-yl)acetamido)-3-benzyloxy-N-(4-(4-fluorophenoxy)phenyl)propanamide], for which the IC50 is not above 300 nM.

Take `O=C(CCCc1cccs1)NC(COCc1ccccc1)C(=O)Nc1ccc(Oc2ccccc2)cc1` (stereo not drawn) [Compound 325, N-(2-oxo-1-{[(phenylmethyl)oxy]methyl}-2-{[4-(phenyloxy)phenyl]amino}ethyl)-4-(2-thienyl)butanamide]: the half-inhibitory concentration (IC50) is 300 to 1000 nM.

For the molecule `Cc1cc(F)ccc1C[C@@H]1C[C@@H](C(=O)Nc2ccc(Oc3ccc(F)cc3)cc2)N(C(=O)Cn2ccnn2)C1` [Compound 6, (2S,4R)-1-(2-(1H-1,2,3-triazol-1-yl)acetyl)-4-(4-fluoro-2-methylbenzyl)-N-(4-(4-fluorophenoxy)phenyl)pyrrolidine-2-carboxamide], the half-maximal inhibitory concentration (IC50) was not above 300 nM.

Consider `O=C(NC(COCc1ccccc1)C(=O)Nc1ccc(Oc2ccccc2)cc1)c1cnnc2ccccc12` (stereo not drawn) [Compound 356, N-(2-oxo-1-{[(phenylmethyl)oxy]methyl}-2-{[4-(phenyloxy)phenyl]amino}ethyl)cinnoline-4-carboxamide], for which the IC50 is 300 to 1000 nM.

As to `O=C(Nc1ccc(Oc2ccccc2)cc1)C(COCc1ccccc1)NC(=O)[C@H](O)c1ccccc1Cl` (stereo partly drawn) [Compound 24, 3-(benzyloxy)-2-((R)-2-(2-chlorophenyl)-2-hydroxyacetamido)-N-(4-phenoxyphenyl)propanamide], the 50% inhibitory concentration (IC50) was more than 1000 nM.

Take `Cc1cncc(C(=O)NC(COCc2ccccc2)C(=O)Nc2ccc(Oc3ccccc3)cc2)c1` (stereo not drawn) [Compound 18, N-(3-(benzyloxy)-1-oxo-1-(4-phenoxyphenylamino)propan-2-yl)-5-methylnicotinamide]: the IC50 is more than 1000 nM.

For the molecule `Cn1cc(CC(=O)NC(COCc2ccccc2)C(=O)Nc2ccc(Oc3ccccc3)cc2)c2ccccc21` (stereo not drawn) [Compound 364, N-(2-oxo-1-{[(phenylmethyl)oxy]methyl}-2-{[4-(phenyloxy)phenyl]amino}ethyl)-2-(1-methyl-1H-indol-3-yl)acetamide], the IC50 was more than 1000 nM.

Take `O=C(Nc1ccc(Oc2ccc(F)cc2)cc1)[C@@H]1C[C@@H](Cc2ccc(F)cc2F)CN1C(=O)Cn1ccnn1` [Compound 267, (2S,4R)-1-(2-(1H-1,2,3-triazol-1-yl)acetyl)-4-(2,4-difluorobenzyl)-N-(4-(4-fluorophenoxy)phenyl)pyrrolidine-2-carboxamide]: the IC50 is not above 300 nM.

For `CC(=O)N[C@@H](COCc1ccc(F)cc1)C(=O)Nc1ccc(Oc2ccc(F)cc2)cc1` [Compound 164, (S)-2-acetamido-3-(4-fluorobenzyloxy)-N-(4-(4-fluorophenoxy)phenyl)propanamide], the concentration for half-maximal inhibition (IC50) is not above 300 nM.

As for `O=C(CC(F)(F)F)NC(COCc1ccccc1)C(=O)Nc1ccc(Oc2ccccc2)cc1` (stereo not drawn) [Compound 22, N-(3-(benzyloxy)-1-oxo-1-(4-phenoxyphenylamino)propan-2-yl)-3,3,3-trifluoropropanamide], the IC50 was in the range of 300 to 1000 nM.

On to `O=C(Cc1cnc[nH]1)N[C@@H](CCCc1ccccc1)C(=O)Nc1ccc(Oc2ccc(F)cc2)cc1` [Compound 137, (S)-2-(2-(1H-imidazol-5-yl)acetamido)-5-phenyl-N-(4-(4-fluorophenoxy)phenyl)pentanamide], for which the concentration for half-maximal inhibition (IC50) was not above 300 nM.

For `O=C(CCC(=O)N1C[C@H](Cc2ccccc2)C[C@H]1C(=O)Nc1ccc(Oc2ccc(F)cc2)cc1)c1ccccc1` [Compound 124, (2S,4R)-4-benzyl-N-(4-(4-fluorophenoxy)phenyl)-1-(4-oxo-4-phenylbutanoyl)pyrrolidine-2-carboxamide], the half-maximal inhibitory concentration (IC50) is not above 300 nM.

As to `O=C(CN1CCN(c2ccccc2F)CC1)N[C@@H](COCc1ccccc1)C(=O)Nc1ccc(Oc2ccc(F)cc2)cc1` [Compound 127, (S)-3-(benzyloxy)-N-(4-(4-fluorophenoxy)phenyl)-2-(2-(4-(2-fluorophenyl)piperazin-1-yl)acetamido)propanamide], the IC50 is more than 1000 nM.

Take `COCCOCC(=O)N1C[C@H](Cc2ccccc2)C[C@H]1C(=O)Nc1ccc(Oc2ccc(F)cc2)cc1` [Compound 88, (2S,4R)-4-benzyl-N-(4-(4-fluorophenoxy)phenyl)-1-(2-(2-methoxyethoxy)acetyl)pyrrolidine-2-carboxamide]: the IC50 is not above 300 nM.

Turning to `CCCCc1ccc(C(=O)NC(COCc2ccccc2)C(=O)Nc2ccc(Oc3ccccc3)cc2)nc1` (stereo not drawn) [Compound 378, 5-butyl-N-(2-oxo-1-{[(phenylmethyl)oxy]methyl}-2-{[4-(phenyloxy)phenyl]amino}ethyl)pyridine-2-carboxamide], the half-inhibitory concentration (IC50) lay in the range of 300 to 1000 nM.

With `Cc1ccoc1C(=O)NC(COCc1ccccc1)C(=O)Nc1ccc(Oc2ccccc2)cc1` (stereo not drawn) [Compound 401, 3-methyl-N-(2-oxo-1{[(phenylmethyl)oxy]methyl}-2-{[4-(phenyloxy)phenyl]amino}ethyl)furan-2-carboxamide], the 50% inhibitory concentration (IC50) is more than 1000 nM.

Turning to `O=C(NC(COCc1ccccc1)C(=O)Nc1ccc(Oc2ccccc2)cc1)c1ccc(Cl)cc1F` (stereo not drawn) [Compound 387, 4-chloro-2-fluoro-N-(2-oxo-1-{[(phenylmethyl)oxy]methyl}-2-{[4-(phenyloxy)phenyl]amino}ethyl)benzamide], the half-maximal inhibitory concentration (IC50) is more than 1000 nM.

As for `O=C(NC(COCc1ccccc1)C(=O)Nc1ccc(Oc2ccccc2)cc1)c1cc2ccccc2o1` (stereo not drawn) [Compound 366, N-(2-oxo-1-{[(phenylmethyl)oxy]methyl}-2-{[4-(phenyloxy)phenyl]amino}ethyl)-1-benzofuran-2-carboxamide], the IC50 is more than 1000 nM.

As for `N#Cc1ccc(C(=O)NC(COCc2ccccc2)C(=O)Nc2ccc(Oc3ccccc3)cc2)cc1` (stereo not drawn) [Compound 380, 4-cyano-N-(2-oxo-1-{[(phenylmethyl)oxy]methyl}-2-{[4-(phenyloxy)phenyl]amino}ethyl)benzamide], the IC50 was more than 1000 nM.

Consider `O=C(Nc1ccc(Oc2ccc(F)cc2)cc1)[C@@H]1C[C@@H](Cc2ccccc2)CN1C(=O)CN1C(=O)CSC1=S` [Compound 99, (2S,4R)-4-benzyl-N-(4-(4-fluorophenoxy)phenyl)-1-(2-(4-oxo-2-thioxothiazolidin-3-yl)acetyl)pyrrolidine-2-carboxamide], for which the IC50 is not above 300 nM.

As to `COc1ccccc1CCC(=O)NC(COCc1ccccc1)C(=O)Nc1ccc(Oc2ccccc2)cc1` (stereo not drawn) [Compound 394, N-(2-oxo-1-{[(phenylmethyl)oxy]methyl}-2-{[4-(phenyloxy)phenyl]amino}ethyl)-3-(2-methoxyphenyl)propanamide], the IC50 is more than 1000 nM.

Take `O=C(Cc1ccccn1)N[C@@H](COCc1ccccc1)C(=O)Nc1ccc(Oc2ccc(F)cc2)cc1` [Compound 246, (S)-3-(benzyloxy)-N-(4-(4-fluorophenoxy)phenyl)-2-(2-(pyridin-2-yl)acetamido)propanamide]: the IC50 is not above 300 nM.

Regarding `Cc1ccc(C(=O)NC(COCc2ccccc2)C(=O)Nc2ccc(Oc3ccccc3)cc2)cc1F` (stereo not drawn) [Compound 400, 3-fluoro-4-methyl-N-(2-oxo-1-{[(phenylmethyl)oxy]methyl}-2-{[4-(phenyloxy)phenyl]amino}ethyl)benzamide], the IC50 is more than 1000 nM.

As for `O=C(Nc1ccc(Oc2ccc(F)cc2)cc1)[C@@H]1C[C@@H](Cc2ccccc2)CN1C(=O)Cn1ccnn1` [Compound 10, (2S,4R)-1-(2-(1H-1,2,3-triazol-1-yl)acetyl)-4-benzyl-N-(4-(4-fluorophenoxy)phenyl)pyrrolidine-2-carboxamide], the half-maximal inhibitory concentration (IC50) is not above 300 nM.

As for `O=C(Cc1cccc(Br)c1)N[C@@H](COCc1ccccc1)C(=O)Nc1ccc(Oc2ccc(F)cc2)cc1` [Compound 244, (S)-3-(benzyloxy)-2-(2-(3-bromophenyl)acetamido)-N-(4-(4-fluorophenoxy)phenyl)propanamide], the concentration for half-maximal inhibition (IC50) fell in the range of 300 to 1000 nM.

For `O=C(CCCC(=O)c1cccs1)NC(COCc1ccccc1)C(=O)Nc1ccc(Oc2ccccc2)cc1` (stereo not drawn) [Compound 323, 5-oxo-N-(2-oxo-1-{[(phenylmethyl)oxy]methyl}-2-{[4-(phenyloxy)phenyl]amino}ethyl)-5-(2-thienyl)pentanamide], the IC50 is 300 to 1000 nM.

As to `O=C(Cc1ccccc1)N[C@@H](COCc1ccccc1)C(=O)Nc1ccc(Oc2ccc(F)cc2)cc1` [Compound 249, (S)-3-(benzyloxy)-N-(4-(4-fluorophenoxy)phenyl)-2-(2-phenylacetamido)propanamide], the 50% inhibitory concentration (IC50) was in the range of 300 to 1000 nM.

`COc1cc(CC(=O)NC(COCc2ccccc2)C(=O)Nc2ccc(Oc3ccccc3)cc2)cc(OC)c1OC` (stereo not drawn) [Compound 392, N-(2-oxo-1-{[(phenylmethyl)oxy]methyl}-2-{[4-(phenyloxy)phenyl]amino}ethyl)-2-(3,4,5-trimethoxyphenyl)acetamide]: the IC50 is 300 to 1000 nM.

Take `Cc1cc(CC(=O)NC(COCc2ccccc2)C(=O)Nc2ccc(Oc3ccccc3)cc2)on1` (stereo not drawn) [Compound 185, 2-(2-(3-methylisoxazol-5-yl)acetamido)-3-benzyloxy-N-(4-phenoxyphenyl)propanamide]: the IC50 is not above 300 nM.

On to `CC(=O)O[C@@H](C)C(=O)NC(COCc1ccccc1)C(=O)Nc1ccc(Oc2ccccc2)cc1` (stereo partly drawn) [Compound 25, (2S)-1-(3-(benzyloxy)-1-oxo-1-(4-phenoxyphenylamino)propan-2-ylamino)-1-oxopropan-2-yl acetate], for which the IC50 was more than 1000 nM.

These data come from US8791102B2, “Acetanilide sphingosine-1-phosphate receptor antagonists” (Exelixis, Inc., priority 2008, dated 2014).
